These results are taken from ChEMBL document CHEMBL4651402, “Screening of ~5500 FDA-approved drugs and clinical candidates for anti-SARS-CoV-2 activity” (2021).

pIC50: −log10 of the molar value. Square brackets hold non-standard residues; d marks the D form. Peptide text beside a SMILES is read from it. Orn = NCCC[C@H](N)C(=O)O

The pIC50 is −log10 of the IC50, conventionally taken in molar units. Low values mean a high IC50, high ones a low IC50.

In the test the test system is SARS-CoV-2. The test can be described thus: microbe, parasite or virus in culture. Conditions: Severe acute respiratory syndrome coronavirus 2, Vero C1008, 48 h; for IC50: read-out: pIC50 (converted).

Take `C[C@H]1O[C@H](O[C@H]2[C@H](O)[C@@H](O)[C@@H](O[C@@H]([C@H](O)[C@@H](O)C=O)[C@H](O)CO)O[C@@H]2CO)[C@H](O)[C@@H](O)[C@@H]1N[C@H]1C=C(CO)[C@@H](O)[C@H](O)[C@H]1O.C[C@H]1O[C@H](O[C@H]2[C@H](O)[C@@H](O)[C@@H](O[C@H]3[C@H](O)[C@@H](O)[C@H](O)O[C@@H]3CO)O[C@@H]2CO)[C@H](O)[C@@H](O)[C@@H]1N[C@H]1C=C(CO)[C@@H](O)[C@H](O)[C@H]1O`: the pIC50 was under 4.70 and the IC50 was over 20 µM.
Take `CNC(=O)c1cnn(-c2nc(N)c3ncn([C@@H]4O[C@H](CO)[C@@H](O)[C@H]4O)c3n2)c1` [REGADENOSON ANHYDROUS]: the pIC50 was under 4.70 and the IC50 was over 20 µM.
`CN(C)C(=O)Oc1ccc[n+](C)c1` [PYRIDOSTIGMINE]: the pIC50 is under 4.70 and the IC50 was over 20 µM.
For `Oc1cccc(O)c1O` [PYROGALLOL], in that order: under 4.70 and over 20 µM.
Take `COc1ccc2c3c([nH]c2c1)C(C)=NCC3` [HARMALINE]: the pIC50 was under 4.70 and the IC50 was over 20 µM.
`COc1ccc2c(c1)C[C@@H](C)N(CCc1ccc(N)cc1)CC2`: the negative logarithm of the IC50 (pIC50) is under 4.70 and the IC50 was over 20 µM.
Turning to `CC[N+](C)(C)CCC(C(N)=O)(c1ccccc1)c1ccccc1` [AMBUTONIUM], the pIC50 was under 4.70 and the IC50 was over 20 µM.
For `CC(=O)N[C@@H](Cc1ccccc1)C(=O)N[C@H]1CCCNC(=O)[C@H](CCCN=C(N)N)NC(=O)[C@H](Cc2c[nH]c3ccccc23)NC(=O)[C@@H](CC2CCCCC2)NC(=O)[C@@H]2CCCN2C1=O`, the pIC50 was under 4.70 and the IC50 is over 20 µM.
For the compound `CN(C)CCN(Cc1ccccc1)c1ccccc1`, the pIC50 was under 4.70 and the IC50 was over 20 µM.
Turning to `COc1c2ccccc2nc2occc12` [DICTAMNINE], the pIC50 is under 4.70 and the IC50 is over 20 µM.
Take `CCN1[C@@H]2CC[C@H]1C[C@@H](OC(c1ccccc1)c1ccccc1)C2` [ETHYBENZTROPINE]: the pIC50 was under 4.70 and the IC50 is over 20 µM.
On to `N#CCNC(=O)c1ccc(-c2ccnc(Nc3ccc(N4CCOCC4)cc3)n2)cc1` [MOMELOTINIB], for which the pIC50 was under 4.70 and the IC50 was over 20 µM.
In the case of `COc1cccc(C=O)c1O`, the pIC50 is under 4.70 and the IC50 was over 20 µM.
Regarding `NCC1CCC(C(=O)O)CC1` (configuration not stated), the pIC50 was under 4.70 and the IC50 was over 20 µM.
For `CN1CCN(Cc2ccc(Nc3ncc(Cl)c(Nc4ccccc4S(=O)(=O)N(C)C)n3)cc2)CC1` [DUBERMATINIB], the pIC50 was under 4.70 and the IC50 is over 20 µM.
Taken in the same sequence, the figures for `Cc1cccc(Oc2cnc(=O)[nH]c2)c1` [TOLIMIDONE] were under 4.70 and over 20 µM.
Consider `CC(C)OC(=O)C1(c2ccccc2)CCN(C)CC1` [PROPERIDINE], for which the pIC50 was under 4.70 and the IC50 is over 20 µM.
As for `CC(C)C(=O)Nc1ccc([N+](=O)O)c(C(F)(F)F)c1`, the pIC50 was under 4.70 and the IC50 is over 20 µM.
`Clc1ccccc1CN1CCc2sccc2C1` [TICLOPIDINE]: the pIC50 was under 4.70 and the IC50 is over 20 µM.
As for `Cc1cnc(N2CC3(CCOCC3)C2)c(C(=O)Nc2ccc(C(=O)N3CCc4cc(C(=O)Nc5c(C)cccc5F)sc4-c4ccccc43)cc2)c1` [PC-786], the pIC50 is under 4.70 and the IC50 was over 20 µM.
For `CC(CCC(=O)O)C1CCC2C3C[C@H](O)[C@@H]4C[C@H](O)CC[C@]4(C)C3CC[C@]12C` (some centres not stated), in that order: under 4.70 and over 20 µM.
In the case of `CCn1ncnc1COc1nn2c(-c3ccccc3F)nnc2cc1C(C)(C)C` [MK-0777], the pIC50 was under 4.70 and the IC50 was over 20 µM.
On to `CC(C)C[C@@H]1NC(=O)[C@H](CCCN)NC(=O)[C@H](C(C)C)NC(=O)[C@@H]2CCCN2C(=O)[C@@H](Cc2ccccc2)NC(=O)[C@H](CC(C)C)NC(=O)[C@H](CCCN)NC(=O)[C@H](C(C)C)NC(=O)[C@@H]2CCCN2C(=O)[C@@H](Cc2ccccc2)NC1=O` [GRAMICIDIN S] (cyclo(L[dF]PV[Orn]L[dF]PV[Orn])), for which the pIC50 was under 4.70 and the IC50 is over 20 µM.
In the case of `OCCc1ccccc1` [PHENYLETHYL ALCOHOL], the pIC50 is under 4.70 and the IC50 is over 20 µM.
On to `Cc1cnc(C(=O)NCCc2ccc(S(=O)(=O)NC(=O)NC3CCCCC3)cc2)cn1` [GLIPIZIDE], for which the pIC50 is under 4.70 and the IC50 is over 20 µM.
For `CC(C)=CCC/C(C)=C/CC/C(C)=C/CC/C(C)=C/CC1=C(C)C(=O)c2ccccc2C1=O` [MENATETRENONE], in that order: under 4.70 and over 20 µM.
Taken in the same sequence, the figures for `CN1C2CCCC1CC(=O)C2` were under 4.70 and over 20 µM.
In the case of `CC(C)(Oc1ccc(CCNC(=O)c2ccc(Cl)cc2)cc1)C(=O)O` [BEZAFIBRATE], the pIC50 is under 4.70 and the IC50 is over 20 µM.
As to `CCSc1ccc2c(c1)N(CCCN1CCN(C)CC1)c1ccccc1S2` [THIETHYLPERAZINE], the pIC50 is under 4.70 and the IC50 is over 20 µM.
For `CC(C)=CCC[C@@](C)(O)[C@H]1CC=C(C)CC1`, the pIC50 was under 4.70 and the IC50 was over 20 µM.
Taken in the same sequence, the figures for `CN1CCCN=C1/C=C/c1cccs1` were under 4.70 and over 20 µM.
As for `CC(C)COCC(CN(Cc1ccccc1)c1ccccc1)N1CCCC1` (configuration not stated) [BEPRIDIL], the pIC50 is under 4.70 and the IC50 was over 20 µM.
As to `OCCN1CCN(CCCN2c3ccccc3C=Cc3ccccc32)CC1` [OPIPRAMOL], the pIC50 was under 4.70 and the IC50 was over 20 µM.
Consider `Nc1ncnc2c([C@@H]3N[C@H](CO)[C@@H](O)[C@H]3O)c[nH]c12`, for which the pIC50 is under 4.00 and the IC50 was over 100 µM.
Take `CC(C)NCC(O)COc1cccc2[nH]ccc12` (configuration not stated) [PINDOLOL]: the pIC50 was under 4.70 and the IC50 was over 20 µM.
Consider `N=C(N)c1ccc(C(=O)N[C@@H](Cc2ccc(O)cc2)C(=O)N2CCC(OCC(=O)O)CC2)cc1` [LAMIFIBAN], for which the pIC50 was under 4.70 and the IC50 is over 20 µM.
Taken in the same sequence, the figures for `O=C1Nc2ccc(Cl)cc2C(c2ccccc2)=NC1O` (configuration not stated) [OXAZEPAM] were under 4.70 and over 20 µM.
Turning to `O=P1(NCCCl)OCCCN1CCCl` (configuration not stated) [IFOSFAMIDE], the pIC50 was under 4.70 and the IC50 is over 20 µM.
`CC#CC(=O)N1CCC[C@@H]1c1nc(-c2ccc(C(=O)Nc3ccccn3)cc2)c2c(N)nccn12`: the pIC50 was under 4.70 and the IC50 is over 20 µM.
On to `C1N2CN3CN1CN(C2)C3` [METHENAMINE], for which the pIC50 was under 4.70 and the IC50 is over 20 µM.
For `NC(=O)c1csc(C2OC(CO)C(O)C2O)n1` (configuration not stated), in that order: under 4.70 and over 20 µM.
In the case of `OC(CN1CCC(Cc2ccc(F)cc2)CC1)c1ccc(Cl)cc1` (configuration not stated) [ELIPRODIL], the pIC50 is under 4.70 and the IC50 was over 20 µM.
Take `CCN1CCC[C@H]1CNC(=O)c1c(OC)ccc(Br)c1OC` [REMOXIPRIDE]: the pIC50 is under 4.70 and the IC50 is over 20 µM.
Regarding `C[C@@H](N)Cc1ccccc1` [LEVAMFETAMINE], the pIC50 is under 4.70 and the IC50 was over 20 µM.
With `C#C[C@]1(O)CC[C@H]2[C@@H]3CCC4=CC(=O)CC[C@]4(C)[C@H]3CC[C@@]21C` [ETHISTERONE], the pIC50 was under 4.70 and the IC50 was over 20 µM.
`CN(C)CC/C=C1\c2ccccc2COc2ccccc21` [E-DOXEPIN]: the pIC50 is under 4.70 and the IC50 is over 20 µM.
As to `C[N+]12CCC34c5ccccc5N5C(=O)CC6OCC=C(C1)C(CC32)C6C54` (configuration not stated), the pIC50 is under 4.70 and the IC50 is over 20 µM.
For the compound `CCOC(=O)NNc1nncc2ccccc12` [TODRALAZINE], the negative-log IC50 (pIC50) was under 4.70 and the IC50 is over 20 µM.
With `OC[C@H]1O[C@@H](c2ccc(Cl)c(Cc3ccc(O[C@H]4CCOC4)cc3)c2)[C@H](O)[C@@H](O)[C@@H]1O` [EMPAGLIFLOZIN], the pIC50 is under 4.70 and the IC50 is over 20 µM.
With `CCC(N)Cc1c[nH]c2ccccc12` (configuration not stated) [ETRYPTAMINE], the pIC50 is under 4.70 and the IC50 is over 20 µM.
For the compound `O=C(OCC(O)CO)c1ccccc1Nc1ccnc2c(C(F)(F)F)cccc12` (configuration not stated) [FLOCTAFENINE], the pIC50 is under 4.70 and the IC50 was over 20 µM.
As for `CCOC(=O)[C@H](CCc1ccccc1)N[C@H]1CCc2ccccc2N(CC(=O)O)C1=O` [BENAZEPRIL], the pIC50 is under 4.70 and the IC50 is over 20 µM.
For `CC(C)C(Br)C(=O)NC(N)=O` (configuration not stated) [BROMISOVALUM], in that order: under 4.70 and over 20 µM.
As for `Cc1nccc2c1[nH]c1cc(O)ccc12`, the pIC50 was under 4.70 and the IC50 is over 20 µM.
For the compound `CC1(C)CC[C@]2(C(=O)O)CC[C@]3(C)C(=CC[C@@H]4[C@@]5(C)CC[C@H](O)C(C)(C)[C@@H]5CC[C@]43C)[C@@H]2C1` [OLEANOLIC_ACID], the pIC50 was under 4.70 and the IC50 was over 20 µM.
On to `C/N=C(\NS(=O)(=O)c1ccc(Cl)cc1)N1C[C@@H](c2ccccc2)C(c2ccc(Cl)cc2)=N1` (racemic), for which the pIC50 is under 4.70 and the IC50 was over 20 µM.
For the compound `CC(COc1ccccc1)NC(C)C(O)c1ccc(O)cc1` (configuration not stated) [ISOXSUPRINE], the pIC50 was under 4.70 and the IC50 was over 20 µM.
As to `COc1ccc2[nH]cc(CCNC(C)=O)c2c1` [MELATONIN], the pIC50 was under 4.70 and the IC50 was over 20 µM.
In the case of `CCCCCCCCCCCC1=C(O)C(=O)C=C(O)C1=O` [EMBELIN], the pIC50 was under 4.70 and the IC50 was over 20 µM.
For `CN1CCC/C1=N\C(=N\c1ccccc1)N1CCOCC1` [LINOGLIRIDE], the pIC50 is under 4.70 and the IC50 is over 20 µM.
`NCCC(O)C(=O)N[C@@H]1C[C@H](N)[C@@H](OC2O[C@H](CN)[C@@H](O)[C@H](O)[C@H]2N)[C@H](OC2O[C@H](CO)C(O)[C@H]2O)[C@H]1O` (some centres not stated): the pIC50 is under 4.70 and the IC50 is over 20 µM.
